Reference: patent publication US11434205B2, “Substituted imidazole carboxylate derivatives and the use thereof” (priority 2018, dated 2022)
Where two headings read alike, the source gives them in different places.

Legend:
rats [1] = experiment: Pharmacological characteristics at equivalent doses (2×ED50) in rats; settings: 2×ED50, tail vein; for Adverse reactions: Red urine (incidence): DMSO solution (DMSO alone 10/10); for Onset time: time of LORR
How it was run: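 Adult male Sprague-Dawley rats (250-300 g, n=8) received each drug at twice its ED50 via tail vein (0.6 mL at 0.1 mL/s). Onset of anesthesia taken as time to LORR.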

[2] = tested on: secretion of corticosterone, H295R cell line; experiment: cells; assay type: cell-based; settings: for EC50: read-out: EC50 (Corticosterone)
Method: (§1) The Effects of the Compounds on Adrenocortical Function In Vitro Test
(§2) Then secretion of the cortisol and corticosterone in the supernatant, was measured using HPLC-MS/MS method to determine whether the compounds of the present invention had adrenotoxic potential.

[3] = tested on: secretion of cortisol, H295R cell line; experiment: cells; assay type: cell-based; settings: for EC50: read-out: EC50 (Cortisol)
Method: as §1, §2

rats [4] = tested on: rats
Method: Pharmacological Effects of the Compounds on Continuous Infusion in Rats
Adult male Sprague-Dawley rats with body weight ranging from 250 to 300 gm were selected for continuous infusion test. […] Time to recovery of righting reflex from stopping infusion, and time to fully awake from stopping infusion were recorded.

rats [5] = experiment: Loss of righting reflexes (LORR) assay in rats, ED50 by up and down method; assay type: in vivo, rat; settings: Rattus norvegicus, tail vein
How it was run: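 Adult male Sprague-Dawley rats (250-300 g) dosed i.v. via tail vein at 0.1 mL/s. Anesthesia scored as loss of righting reflex lasting >30 s; ED50 derived by up-and-down method.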

rats [6] = assay type: in vivo, rat; settings: for recovery time of the test animals' righting reflex: rats of the MAP/HR figures, 2×ED50, tail vein, same value in min
How it was run: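 Rats implanted with telemetry (left ventricular and abdominal aortic catheters, ECG leads) at least one week before recording; compounds given via lateral tail-vein catheter. MAP and HR sampled every 15 s for 30 min before and after dosing to judge hemodynamic stability.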

rats [7] = assay type: in vivo, rat; settings: rats of the MAP/HR figures, 2×ED50, tail vein
rats [8] = tested on: rats; remark: listed apart in the source
Method: Adult male Sprague-Dawley rats (250-300 g) were selected for the experiment. […] The anesthesia effects of the compounds were assessed in rats using a LORR assay and a period >30 s was considered as an indicator of general anesthesia. Then the up and down method was used to determine 50% effective dose (ED50). The drugs were administered through the tail vein of rats in a volume of 0.6 mL and at a rate of 0.1 mL/s.

[9] = continuous tail vein infusion at 2×MIR, LORR maintained 1 hour, Table C4
[10] = H295R cell line, 0.1-10000 nM, HPLC-MS/MS, Table D3
[11] = continuous tail vein infusion at 2×MIR, LORR maintained 1 hour, Table D4
[12] = emulsion, continuous infusion at 2×MIR
[13] = H295R cell line, 0.1-10000 nM, HPLC-MS/MS, Table E3
[14] = continuous tail vein infusion at 2×MIR, LORR maintained 1 hour, Table E4

| Compound | Righting reflex duration (rats [1]) [min] | Adverse reactions: Red urine (incidence) (rats [1]) | Onset time (rats [1]) [min] | Corticosterone as an indicator to determine the presence of inhibition ([2]; H295R, Table C3) | EC50 ([2]; Homo sapiens, NCI-H295R) [nM] | Cortisol as an indicator to determine the presence of inhibition ([3]; H295R, Table C3) | EC50 ([3]; Homo sapiens, NCI-H295R) [nM] | Onset time (rats [4]; [9]) [min] | Recovery time after stopping infusion (rats [4]; [9]) [min] | Types and incidence of adverse reactions (rats [4]; [9]) | ED50 (rats [5]; class symbols) [mg/kg] | recovery time of the test animals' righting reflex (rats [6]) [min] | recovery time of the test animals' righting reflex (rats [7]) [s] | Approximate therapeutic index (rats [8]) | Minimal lethal dose (rats [8]) [mg/kg] | Corticosterone as an indicator to determine the presence of inhibition [2, 10] | Cortisol as an indicator to determine the presence of inhibition [3, 10] | Onset time (rats [4]; [11]) [min] | Recovery time after stopping infusion (rats [4]; [11]) [min] | other results |
| --- | --- | --- | --- | --- | --- | --- | --- | --- | --- | --- | --- | --- | --- | --- | --- | --- | --- | --- | --- | --- |
| CC(=O)C1(OC(=O)c2cncn2[C@H](C)c2ccccc2)COC1 [Compound C3] | 1.31 ± 0.95 | urine (8/8) | 0.36 ± 0.12 | 0 | > 1000 | 0 | > 1000 | 3 to 4 | 10 to 14 | Restlessness (2/6), Tremor (3/6) | 0.5 to 1 | 1.25 | 75 | >14 | >10 | – | – | – | – | Adverse reactions: Restlessness (incidence) (rats [1]): Restlessness (3/8), Red |
| C=C=CC1(OC(=O)c2cncn2[C@H](C)c2ccccc2)COC1 [Compound D21] | 1.93 ± 0.95 | Red urine (8/8) | 0.15 ± 0.05 | – | > 1000 | – | > 1000 | – | – | – | 0.01 to 0.1 | 6.0 | 360 | >16 | >1 | 0 | 0 | 2 to 3 | 8 to 9 | Adverse reactions: Hindlimb rigidity (incidence) (rats [1]): Hindlimb rigidity (2/8),; Types and incidence of adverse reactions (rats [4]; [11]): Tremor (4/6), Myoclonus (1/6) |
| CC(=O)CCOC(=O)c1cncn1[C@H](C)c1ccccc1 [Compound C7] | 1.68 ± 0.88 | Red urine (8/8) | 0.15 ± 0.06 | 0 | > 1000 | 0 | > 1000 | 3 to 4 | 8 to 14 | Tremor (6/6) | 0.1 to 0.5 | 1.87 | 112 | >10 | >4 | – | – | – | – | Adverse reactions: Muscle twitching (incidence) (rats [1]): Muscle twitching (4/8), |
| C[C@H](c1ccccc1)n1cncc1C(=O)OC1CCC1 [Compound A17] | 5.78 ± 2.28 | Red urine (8/8) | 0.13 ± 0.03 | – | > 10000 | – | > 10000 | – | – | – | 0.5 to 1 | 5.45 | 327 | >11 | >6 | – | – | – | – | Adverse reactions: Tongue stretching (incidence) (rats [1]): Tongue stretching (2/8),; Corticosterone as an indicator to determine the presence of inhibition ([2]; H295R, Table A3): 0; Cortisol as an indicator to determine the presence of inhibition ([3]; H295R, Table A3): 0; Recovery time after stopping infusion (rats [4]; after 1 hour infusion at 2×MIR): 19 to 25 min; Adverse reactions: Tremor (incidence) (rats [4]; continuous infusion 2×MIR): Tremor (2/6); Onset time (rats [4]; [12]): 2 to 3 min |
| CCCC(CCC)OC(=O)c1cncn1[C@H](C)c1ccccc1 [Compound C20] | 3.59 ± 2.63 | (8/8) | 0.43 ± 0.07 | 0 | > 10000 | 0 | > 10000 | 3 to 4 | 8 to 15 | Tremor (3/6), Myoclonus (1/6) | 0.1 to 0.5 | 4.05 | 243 | >16 | >7 | – | – | – | – | Adverse reactions: Tremor (incidence) (rats [1]; animals affected/animals): Tremor (2/8), Red urine |
| CC#CCOC(=O)c1cncn1[C@H](C)c1ccccc1 [Compound D18] | 1.88 ± 0.95 | urine (8/8) | 0.22 ± 0.11 | – | > 10000 | – | > 10000 | – | – | – | 0.1 to 0.5 | 5.28 | 317 | >12 | >3 | 0 | 0 | 3 to 4 | 11 to 13 | Adverse reactions: Convulsions (incidence) (rats [1]): Convulsions (1/8), Red; Types and incidence of adverse reactions (rats [4]; [11]): Convulsions (1/6), Tremor (4/6) |
| CCOC(=O)c1cncn1[C@H](C)c1ccccc1 [Etomidate, ethyl R-(+)-1-(1-phenylethyl)-1H-imidazol-5-carboxylate, reference compound] | – | – | – | 2 | > 10 | 2 | > 1 | 4 to 5 | 25 to 30 | – | – | 7.33 | 440 | – | 12.75 | 2 | 2 | 4 to 5 | 25 to 30 | Corticosterone as an indicator to determine the presence of inhibition [2, 13]: 2; Corticosterone as an indicator to determine the presence of inhibition ([2]; H295R, Table A3): 2; Corticosterone as an indicator to determine the presence of inhibition ([2]; H295R, Table B3): 2; EC50 [2, 10]: > 10 nM; EC50 [2, 13]: > 10 nM; Cortisol as an indicator to determine the presence of inhibition [3, 13]: 2; Cortisol as an indicator to determine the presence of inhibition ([3]; H295R, Table A3): 2; Cortisol as an indicator to determine the presence of inhibition ([3]; H295R, Table B3): 2; EC50 [3, 10]: > 1 nM; EC50 [3, 13]: > 1 nM; Recovery time after stopping infusion (rats [4]; after 1 hour infusion at 2×MIR): 25 to 30 min; Adverse reactions: Facial muscle twitching (incidence) (rats [4]; continuous infusion 2×MIR): twitching (4/6), Tongue stretching; Adverse reactions: Tongue stretching (incidence) (rats [4]; continuous infusion 2×MIR): (5/6); Adverse reactions: Tremor (incidence) (rats [4]; continuous infusion 2×MIR): 6/6; Onset time (rats [4]; [14]): 4 to 5 min; Recovery time after stopping infusion (rats [4]; [14]): 25 to 30 min; Onset time (rats [4]; [12]): 4 to 5 min; ED50 (rats [5]; brackets = 95% confidence limit): 0.75 mg/kg; effect on the circulatory function (MAP, HR) (rats [6]; rats, 2×ED50, 30 min after administration): almost no inhibitory effect on the circulatory function |
| CC(OC(=O)c1cncn1[C@H](C)c1ccccc1)C1CO1 (stereo partly shown) [Compound B20] | 2.59 ± 0.99 | Red urine (8/8) | 0.28 ± 0.14 | – | > 1000 | – | > 1000 | – | – | – | 0.5 to 1 | 2.68 | 161 | >10 | >17 | – | – | – | – | Corticosterone as an indicator to determine the presence of inhibition ([2]; H295R, Table B3): 0; Cortisol as an indicator to determine the presence of inhibition ([3]; H295R, Table B3): 0 |
| CC#CC1(OC(=O)c2cncn2[C@H](C)c2ccccc2)COC1 [Compound D39] | 1.11 ± 0.34 | urine (8/8) | 0.20 ± 0.05 | – | > 1000 | – | > 1000 | – | – | – | 0.5 to 1 | 6.25 | 375 | >15 | >9 | 0 | 0 | – | – | Adverse reactions: Hindlimb rigidity (incidence) (rats [1]): Hindlimb rigidity (1/8),; Adverse reactions: Myoclonus (incidence) (rats [1]): Myoclonus (1/8), Red |
